The results in this text go back to a melting point compilation (Tetko et al.; mined from patent text by program, amines drawn as free bases though some values may be those of a salt).

Some results are limits rather than exact numbers.

What is called melting point is the temperature of the solid-liquid transition. For the molecule `Cc1ccccc1-c1ccc(C(=O)N2Cc3ccc(C(=O)NCc4ccc(OC(F)(F)F)cc4)n3Cc3ccccc32)cc1C`, the melting point lay in the range of 147 to 149 °C.
On to `CCc1nnc2c(NC3CCCCC3)nc3ccccc3n12`, for which the melting point lay in the range of 217 to 220 °C.
On to `CCN(C)C(C)C(=O)Nc1cccc2c1C(=O)c1c(NC(=O)C(C)N(C)CC)cccc1C2=O` (centres undefined), for which the melting point lay in the range of 129 to 130 °C.
In turn, `CCOC(=O)C1(C)OC2(O)C3CCCN3C(=O)C(Cc3ccccc3)N2C1=O` (centres undefined) came in with a melting point of 134 to 136 °C.
The molecule `CCCN(C(N)=S)c1ccc(Cl)cc1Cl` yielded a melting point of 121 °C.
Molecule `CCCCS(=O)(=O)Cc1ccc(C(=O)Nc2ccc3cc(CN4CCCC4)cnc3c2C)cc1` displayed a melting point of 199 °C.
For the molecule `COc1cc(C=CC2=CC(=O)C(C)(C)O2)cc(OC)c1OC`, the melting point was 149 to 150 °C.
`COc1ccc(CC(=O)NCc2ccccc2-c2ccccc2C(=O)NCc2ccc(F)cc2F)cc1` gave a melting point of 138 °C.
`O=[N+]([O-])C=C1NCCN1Cc1ccno1`: the melting point lay in the range of 156 to 158 °C.
For the molecule `CCCc1nc2cnc3cc(Br)ccc3c2n1CC1CCN(C(=O)OC(C)(C)C)CC1`, the melting point fell in the range of 215 to 216 °C.
`COc1ccc(C(O)Cc2c(Cl)cncc2Cl)c2c1OC(C)(C)C2` (centres undefined) registered a melting point of 100 to 104 °C.
The molecule `CC(=O)NC[C@H]1CN(c2ccc(-n3cc(-c4ccc(Cl)cc4)cn3)c(F)c2)C(=O)O1` gave a melting point of 238 °C.
As to `Cc1ccc(-c2nc(C(N)=O)cs2)cc1`, the melting point was 100 to 102 °C.
The same measure for `Cc1[nH]cnc1/C=C/C(=O)c1cc2ccccc2s1`: 188 to 190 °C.
In turn, `Cn1c(=O)c2c(ncn2CCCN2CCC(NC(=O)c3ccc(N)cc3)CC2)n(C)c1=O` returned a melting point of 203 to 205 °C.
`CCCCOC(=O)c1ccc(-c2nc(C(Cl)(Cl)Cl)nc(C(Cl)(Cl)Cl)n2)cc1` yielded a melting point of 109 to 110 °C.
Next, `N#CNC(=S)Nc1ccc(OCc2ccccc2)cc1`: more than 270 °C.
As for `CNC(=NCCSCc1[nH]cnc1C)P(=O)(O)OC`, the melting point lay in the range of 170 to 171 °C.
Regarding `CC(C)(C)NC(=O)N1CCn2c(Cl)c(-c3cccc(C#N)c3)c(C(N)=O)c2C1`, the melting point was in the range of 192 to 195 °C.
The molecule `CCOC(=N)c1cccc(C)c1OC` showed a melting point of 93 to 96 °C.
Next, `CS(=O)(=O)NC(=O)NCCCc1ccc2c(NC(=O)CC3CCCCC3)c(Cl)ccc2n1`: 151 to 152 °C; `O=S(=O)(c1ccc(C(F)(F)F)cc1)N1c2cc(F)c(F)cc2-c2[nH]ncc2[C@H]1C1CC1`: 137 to 138 °C.
The molecule `CCOC(=O)CCN(CNC(=O)OC(C)(C)C)C(=O)Cn1cc(C)c(=O)[nH]c1=O` displayed a melting point of 174 to 175 °C.
`CC(=NOCCO)c1ccc(S(=O)(=O)c2ccccc2)cc1` had a melting point of 87 to 88 °C.
With `CCCn1ncc(C#N)c1N`, the melting point is 85 to 90 °C.
In turn, `O=C(CCl)NCc1c(O)c(I)cc2c1CCCC2` displayed a melting point of 119 to 125 °C.
Molecule `CC(C)n1nc(-c2c(OCC(=O)N(C)C)nc(N)nc2-c2ccccc2)ccc1=O` yielded a melting point of 133 to 136 °C.
`OCC12CO[C@@H](c3ccc(F)cc3)N1[C@H](c1ccc(F)cc1)OC2` returned a melting point of 115 °C.
On to `O=C1CCCc2c1ccc(OCc1ccccc1)c2CBr`, for which the melting point was in the range of 103 to 104 °C.
The same measure for `Cc1cc(Nc2cncc(Nc3ccc(Cl)c(C(=O)N(C)C)c3)n2)n[nH]1`: 213 to 215 °C.
`O=C1Cc2cc3c(cc2C(c2cccc([N+](=O)[O-])c2)=NN1)OCO3` registered a melting point of 251 to 253 °C.
Molecule `COC1=C(OC)C(=O)C(CCCCCCCCCCCCCCCC(=O)O)=C(C)C1=O` displayed a melting point of 70 to 71 °C.
Turning to `Cc1cc(C#N)c(S(C)(=O)=O)cc1C(=O)O`, the melting point was 248 to 249 °C.
The same measure for `COc1ccc(O)c(CNc2ccccc2)c1`: 82 to 84 °C; for `O=C(Nc1cccc2c1C(=O)c1c-2n[nH]c1-c1ccc(N2CCC(N3CCCCC3)CC2)cc1)NN1CCOCC1`: 233 °C.
As to `C=C(Br)CCC(=O)NC(C(=O)OCC)C(=O)OCC`, the melting point was in the range of 85 to 87 °C.
Next, `CCN1CCN(c2ccc(Br)cc2)CC1`: 112 °C.
For `O=c1c2ccccc2nc(-c2cc(-c3ccncc3)c(N3CCOCC3)s2)n1-c1ccccc1`, the melting point lay within 230 to 231 °C.
Molecule `CN1CCN(c2cc(Sc3ccccc3)nc(-c3ccccc3)n2)CC1` yielded a melting point of 125 to 128 °C.
Next, `COCCCNC(=O)OCCCc1ccc(OCCOC)cc1Oc1ncc(C(F)(F)F)cc1Cl`: 83.5 to 85 °C; `CCCCCCCCCCn1c(=S)nc2cc(Cl)ccn2c1=S`: 153 to 155 °C.
The same measure for `O=C(O)c1ccc(CO)cc1O`: 179 to 180 °C.
The same measure for `Cc1ccc(Cn2c(NC3CCN(C)CC3)nc3cccnc32)o1`: 131 °C.
In turn, `Cc1c(F)c(N2CCC(C)(CN)C2)c(F)c2c1c(=O)c(C(=O)O)cn2C1CC1` (centres undefined) had a melting point of 182 to 184 °C.
For the molecule `Nc1cccc(C#CCCN2CCC(O)(c3ccc(Cl)cc3)CC2)c1`, the melting point is 139 to 140 °C.
`O=[N+]([O-])c1cc2c(Nc3ccc(F)c(Cl)c3)ncnc2cc1O[C@@H]1CCOC1` registered a melting point of 244 °C.
As for `CCOc1cn(C)cc(-c2ccc(Cl)c(C(F)(F)F)c2)c1=O`, the melting point is 158 to 159 °C.
For `CCO[C@@H]1C[C@@H]2CN(C(=O)[C@@H](NC(=O)[C@H](C)NC)C3CCC(F)(F)CC3)[C@H](C(=O)N[C@@H]3CCOc4ccccc43)CN2C1`, the melting point stood at 179 °C.
The same measure for `CCCCc1nc(SC)c(C(=O)OCC)n1Cc1ccc(-c2ccc(S(=O)(=O)NC#N)cc2)cc1`: 244 °C; for `CNC(=S)NS(=O)(=O)c1cc2c(cc1OC)OC(C)(C)C(NC(=O)c1cc(F)ccc1OC)C2` (centres undefined): 222 °C.
On to `O=C(NCC(S)CO)OCc1ccc([N+](=O)[O-])cc1` (centres undefined), for which the melting point lay in the range of 65 to 67 °C.
Consider `O=C(NCc1ccccn1)c1cc(-n2cnn(Cc3ccc(F)cc3)c2=O)n[nH]1`, for which the melting point is 224 to 225 °C.
Next, `O=C(O)Cc1nn(-c2ccccn2)c2[nH]c3ccccc3c(=O)c12`: 229 to 231 °C; `CCOC(=O)C1(S(=O)(=O)c2ccc(OC)cc2)CCN(Cc2ccc(-c3cccs3)cc2)CC1`: 130 °C; `Cc1ccc(-c2cnccn2)cc1`: 54 to 55 °C.
For the molecule `Cc1c(NC(=O)NC(C)(C)CO)c(C)c2c(c1-c1ccccc1)OCC2c1ccc(C(C)C)cc1` (centres undefined), the melting point was 181 to 182 °C.
`O=C(NCCCCCCNC(=O)OC1CCCCC1)OC1CCCCC1` yielded a melting point of 98 to 100 °C.
As for `CN(C)CC=C(c1ccc(-c2ccccc2)cc1)c1ccc(-c2ccccc2)cc1`, the melting point was 94 to 95 °C.
Consider `CC(=O)NC[C@H]1CN(c2cc(F)c(N3CCC(n4nnc(N5CCN(Cc6ccccc6)CC5)n4)CC3)c(F)c2)C(=O)O1`, for which the melting point lay within 188 to 190 °C.
In turn, `C=CN1CC/C(=C\C)C1=O` gave a melting point of 59 to 61 °C.
In turn, `Cc1ccc([C@@H]2Sc3cc(COC(c4ccccc4)(c4ccccc4)c4ccccc4)ccc3N(CCN(C)C)C(=O)[C@@H]2O)cc1` yielded a melting point of 110 to 114 °C.
Regarding `Cc1nc2cccc3n(CCCCNS(C)(=O)=O)c(=O)c1n23`, the melting point fell in the range of 166 to 167 °C.
With `CC(=O)Oc1c(Sc2ccccc2)sc2ccccc12`, the melting point lay within 88 to 90 °C.
The same measure for `O=C(O)Cc1csc(-c2ncccc2O)n1`: 175 to 176 °C; for `CN1CCN(c2ccc(Nc3nc(N)c(C(=O)c4c(Cl)cc(C(F)(F)F)cc4Cl)s3)cc2)CC1`: 239 to 240 °C; for `NCC(O)COCCCCCCCCc1ccccc1` (centres undefined): 50 to 54 °C.
Next, `CNC(C)CN1CCc2c(c(=O)oc3cc(OC)c(OC)cc23)C1` (centres undefined): 137 to 139 °C.
The same measure for `O=C(Oc1ccc2c(c1)C13CCCCC1N(C2)N(C(=O)C1CC1)CC3)C1CC1` (single isomer, unassigned; (+)): 144 °C; for `Cc1oc(-c2ccccc2)nc1CCOc1ccc(CC(Br)C#N)cn1` (centres undefined): 93 to 94 °C.
Turning to `Nc1ncnc2c1ncn2[C@H]1CO[C@@H](CO)C1`, the melting point is 183 to 185 °C.
Molecule `COc1nc(C)nc(NC(=O)NS(=O)(=O)c2ccccc2OCC(Cl)CCl)n1` (centres undefined) returned a melting point of 117 to 118 °C.
Next, `Cc1ccc(C(=O)NC(CF)NC(=S)Nc2cccc([N+](=O)[O-])c2)cc1` (centres undefined): 148 to 155 °C; `CCOC(=O)c1cnc(Nc2ccccc2O)[nH]c1=O`: 289 to 291 °C; `O=C(O)c1ccc(CN2C(=O)C3(COc4cc5c(cc43)OCCO5)c3ccccc32)cc1` (centres undefined): 234 to 237 °C.
Molecule `O=C1c2ccccc2C(=O)N1CCCCOc1ccc(-n2cnnn2)cc1` returned a melting point of 143 to 145 °C.
The molecule `Nc1nc2c(ncn2OCC(O)CO)c(=O)[nH]1` (centres undefined) had a melting point of 252 to 253 °C.
Molecule `O=c1c2ccccc2oc2cc(OCCO)c(Cl)cc12` had a melting point of 153 to 156 °C.
In the case of `NNc1c([N+](=O)[O-])cnn1-c1c(Cl)cc(C(F)(F)F)cc1Cl`, the melting point is 133 to 135 °C.
`COc1nc(N)nc(OCC(F)(F)F)n1`: the melting point was in the range of 78 to 80 °C.
Consider `CCCCC(Cc1ccc(OCCNC(=O)c2ccc(-c3cc(C)c(OCOC)c(C)c3)cc2)cc1)C(=O)OCC` (centres undefined), for which the melting point is 70 to 71 °C.
Consider `CCOC(=O)Cc1nc(-c2ccc(Cl)cc2)oc1C`, for which the melting point was 69 to 70 °C.
Consider `CC(=O)NC[C@H]1CN(c2ccc(N3CCC(Cc4nnc(N)s4)CC3)c(F)c2)C(=O)O1`, for which the melting point was 206 to 207 °C.
Turning to `CC(C)(C)OC(=O)N1CCC2(CC1)c1ccccc1CS2=O` (centres undefined), the melting point lay within 103 to 107 °C.
With `CCCCOc1ccccc1-c1ccc(C(N)=O)c(=O)[nH]1`, the melting point lay within 190 to 191 °C.
Turning to `NC(=O)c1ccccc1-c1cc([N+](=O)[O-])ccc1-c1ccc([N+](=O)[O-])cc1`, the melting point lay within 242 to 244 °C.
`CCCCCC1=C(/C=C/C(=O)O)Cc2cc(OC)ccc21` yielded a melting point of 165 to 166 °C.
For the molecule `COc1cc(Br)c2c(c1)CCCN2`, the melting point lay within 125 to 126 °C.
Molecule `CC(=O)N(Cc1cc(Br)cc2[nH]c(=O)c(=O)[nH]c12)CP(=O)(O)O` yielded a melting point of more than 280 °C.
In turn, `Nc1ncccc1OCC#CI` registered a melting point of 140 °C.
